Patent US6706663B2, “Herbicidal 3-heterocyclic substituted benzisothiazole and benzisoxazole compounds” (Wyeth, priority 2000, dated 2004)

Assays:
[1] = test system: ORYSAT (Rice, Tebonnet); test: Postemergence herbicidal evaluation; assay type: in vivo, Oryza sativa, (L.) Tebonnet; settings: postemergence
How it was run: (§1)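 Visual 0–9 injury scores versus control plants, covering stand, vigour, malformation, size, chlorosis and general appearance, taken four to five weeks post-spray and averaged over replicate tests. Plants were sprayed at roughly two weeks old and held on greenhouse benches.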

[2] = test system: AMBEL (Ambrosia artemisifolia); test: Preemergence herbicidal evaluation; assay type: in vivo, L.; settings: preemergence, rated 4-5 weeks after treatment
How it was run: (§2)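 Preemergence soil spray, aq. acetone; greenhouse; visual 0–9 score vs control at 4–5 wk.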

[3] = test system: CHEAL (Chenopodium album); test: Preemergence herbicidal evaluation; assay type: in vivo, L.; settings: preemergence, rated 4-5 weeks after treatment
How it was run: as §2

[4] = test system: CASOB (Cassia obtusifolia); test: Preemergence herbicidal evaluation; assay type: in vivo, L.; settings: preemergence, rated 4-5 weeks after treatment
How it was run: as §2

[5] = test system: SETVI (Setaria viridis); test: Postemergence herbicidal evaluation; assay type: in vivo, (L.) Beau; settings: postemergence
How it was run: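 Seedlings grown about two weeks were sprayed with compound in 50/50 acetone/water containing 0.5% TWEEN 20, at about 0.0040 to 1.000 kg/ha via nozzle at 40 psi. Plants were kept under greenhouse conditions and visually rated on a 0-9 scale versus control four to five weeks after treatment; replicate tests averaged.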

[6] = test system: ECHCG (Echinochloa crus-galli); test: Preemergence herbicidal evaluation; assay type: in vivo, (L.) Beau; settings: preemergence, rated 4-5 weeks after treatment
How it was run: as §2

[7] = test system: SETVI (Setaria viridis); test: Preemergence herbicidal evaluation; assay type: in vivo, (L.) Beau; settings: preemergence, rated 4-5 weeks after treatment
How it was run: as §2

[8] = test system: ORYSAT (Rice, Tebonnet); test: Preemergence herbicidal evaluation; assay type: in vivo, Oryza sativa, (L.) Tebonnet; settings: preemergence, rated 4-5 weeks after treatment
[9] = test system: CYPIR (Cyperus iria); test: Flooded paddy, preemergence weed control; assay type: in vivo; settings: rated 3-4 weeks after treatment, 0-9 rating scale
How it was run: (§3)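 Silt loam, sowing depth ≤0.5 cm; permanent flood 1.5–3 cm above soil; greenhouse culture after treatment. Readout: 0-9 visual scale (stand, vigor, malformation, size, chlorosis, appearance) vs control.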

[10] = test system: IPOHE (Ipomoea hederacea); test: Postemergence herbicidal evaluation; assay type: in vivo, (L.) Jacq.; settings: postemergence
How it was run: as §1

[11] = test system: TRZAWR (Wheat, Winter, cv Riband); test: Postemergence herbicidal evaluation; assay type: in vivo, Triticum aestivum; settings: postemergence
How it was run: as §1

[12] = test system: GALAP (Galium aparine); test: Preemergence herbicidal evaluation; assay type: in vivo; settings: preemergence, rated 4-5 weeks after treatment
How it was run: as §2

[13] = test system: GALAP (Galium aparine); test: Postemergence herbicidal evaluation; assay type: in vivo; settings: postemergence
How it was run: as §1

[14] = test system: SAGPY (Sagittaria pygmaea); test: Flooded paddy, preemergence weed control; assay type: in vivo, L.; settings: rated 3-4 weeks after treatment, 0-9 rating scale
How it was run: as §3

[15] = test system: AMBEL (Ambrosia artemisifolia); test: Postemergence herbicidal evaluation; assay type: in vivo, L.; settings: postemergence
How it was run: as §1

[16] = test system: CHEAL (Chenopodium album); test: Postemergence herbicidal evaluation; assay type: in vivo, L.; settings: postemergence
How it was run: as §1

[17] = test system: CASOB (Cassia obtusifolia); test: Postemergence herbicidal evaluation; assay type: in vivo, L.; settings: postemergence
How it was run: as §1

[18] = test system: ABUTH (Abutilon theophrasti); test: Postemergence herbicidal evaluation; assay type: in vivo, Medic.; settings: postemergence
How it was run: as §1

[19] = test system: MOOVA (Monochoria vaginalis); test: Flooded paddy, preemergence weed control; assay type: in vivo, Presl.; settings: rated 3-4 weeks after treatment, 0-9 rating scale
How it was run: as §3

CSCC1COC(c2nsc3ccc(-n4c(=O)cc(C(F)(F)F)n(C)c4=O)cc23)O1 (centres unmarked) [Compound 84, 1-methyl-3-[3-[4-[(methylthio)methyl]-1,3-dioxolan-2-yl]-1,2-benzisothiazol-5-yl]-6-(trifluoromethyl)uracil]
6.5: ORYSAT herbicidal rating ([1]; rate 0.0620 kg/ha) | GALAP herbicidal rating ([13]; rate 0.0320 kg/ha)
6.0: SETVI herbicidal rating ([5]; rate 0.0320 kg/ha) | Preemergence herbicidal rating ORYSAT ([8]; rate 0.2500 kg/ha) | herbicidal rating, CYPIR ([9]; rate 0.1250 kg/ha)
5.3: ORYSAT herbicidal rating ([1]; rate 0.0320 kg/ha)
9.0: ORYSAT herbicidal rating ([1]; rate 0.1250 kg/ha) | Preemergence herbicidal rating AMBEL ([2]; rate 0.0620 kg/ha) | Preemergence herbicidal rating AMBEL ([2]; rate 0.1250 kg/ha) | Preemergence herbicidal rating AMBEL ([2]; rate 0.2500 kg/ha) | Preemergence herbicidal rating CHEAL ([3]; rate 0.0620 kg/ha) | Preemergence herbicidal rating CHEAL ([3]; rate 0.1250 kg/ha) | Preemergence herbicidal rating CHEAL ([3]; rate 0.2500 kg/ha) | Preemergence herbicidal rating CASOB ([4]; rate 0.2500 kg/ha) | SETVI herbicidal rating ([5]; rate 0.0620 kg/ha) | Preemergence herbicidal rating ECHCG ([6]; rate 0.2500 kg/ha) | Preemergence herbicidal rating SETVI ([7]; rate 0.2500 kg/ha) | IPOHE herbicidal rating ([10]; rate 0.0320 kg/ha) | IPOHE herbicidal rating ([10]; rate 0.0620 kg/ha) | IPOHE herbicidal rating ([10]; rate 0.1250 kg/ha) | TRZAWR herbicidal rating ([11]; rate 0.1250 kg/ha) | Preemergence herbicidal rating GALAP ([12]; rate 0.2500 kg/ha) | GALAP herbicidal rating ([13]; rate 0.1250 kg/ha) | AMBEL herbicidal rating ([15]; rate 0.0620 kg/ha) | AMBEL herbicidal rating ([15]; rate 0.1250 kg/ha) | CHEAL herbicidal rating ([16]; rate 0.0320 kg/ha) | CHEAL herbicidal rating ([16]; rate 0.0620 kg/ha) | CHEAL herbicidal rating ([16]; rate 0.1250 kg/ha) | CASOB herbicidal rating ([17]; rate 0.1250 kg/ha) | ABUTH herbicidal rating ([18]; rate 0.0320 kg/ha) | ABUTH herbicidal rating ([18]; rate 0.0620 kg/ha) | ABUTH herbicidal rating ([18]; rate 0.1250 kg/ha) | herbicidal rating, MOOVA ([19]; rate 0.0080 kg/ha) | herbicidal rating, MOOVA ([19]; rate 0.0320 kg/ha) | herbicidal rating, MOOVA ([19]; rate 0.1250 kg/ha)
8.0: Preemergence herbicidal rating CASOB ([4]; rate 0.1250 kg/ha) | Preemergence herbicidal rating GALAP ([12]; rate 0.1250 kg/ha)
4.8: TRZAWR herbicidal rating ([11]; rate 0.0320 kg/ha)
6.3: TRZAWR herbicidal rating ([11]; rate 0.0620 kg/ha)
7.5: Preemergence herbicidal rating SETVI ([7]; rate 0.1250 kg/ha) | GALAP herbicidal rating ([13]; rate 0.0620 kg/ha) | AMBEL herbicidal rating ([15]; rate 0.0320 kg/ha)
0.0: herbicidal rating, CYPIR ([9]; rate 0.0080 kg/ha) | herbicidal rating, SAGPY ([14]; rate 0.0080 kg/ha) | herbicidal rating, SAGPY ([14]; rate 0.0320 kg/ha)
7.0: Preemergence herbicidal rating GALAP ([12]; rate 0.0620 kg/ha) | CASOB herbicidal rating ([17]; rate 0.0320 kg/ha) | CASOB herbicidal rating ([17]; rate 0.0620 kg/ha)
1.5: herbicidal rating, CYPIR ([9]; rate 0.0320 kg/ha)
6.7: Preemergence herbicidal rating ECHCG ([6]; rate 0.1250 kg/ha)
2.5: Preemergence herbicidal rating ORYSAT ([8]; rate 0.0620 kg/ha)
3.5: Preemergence herbicidal rating SETVI ([7]; rate 0.0620 kg/ha) | Preemergence herbicidal rating ORYSAT ([8]; rate 0.1250 kg/ha)
4.0: Preemergence herbicidal rating CASOB ([4]; rate 0.0620 kg/ha) | Preemergence herbicidal rating ECHCG ([6]; rate 0.0620 kg/ha) | herbicidal rating, SAGPY ([14]; rate 0.1250 kg/ha)

Cn1c(C(F)(F)F)cc(=O)n(-c2ccc3snc(-c4sccc4CO)c3c2)c1=O [Compound 85, 3-[3-[3-(hydroxymethyl)-2-thienyl]-1,2-benzisothiazol-5-yl]-1-methyl-6-(trifluoromethyl)uracil]
0.0: Preemergence herbicidal rating CASOB ([4]; rate 0.0620 kg/ha) | Preemergence herbicidal rating ECHCG ([6]; rate 0.0620 kg/ha) | CYPIR herbicidal rating ([9]; rate 0.0080 kg/ha) | CYPIR herbicidal rating ([9]; rate 0.0320 kg/ha) | SAGPY herbicidal rating ([14]; rate 0.0080 kg/ha)
4.0: Preemergence herbicidal rating ECHCG ([6]; rate 0.2500 kg/ha) | Preemergence herbicidal rating SETVI ([7]; rate 0.0620 kg/ha) | Preemergence herbicidal rating GALAP ([12]; rate 0.0620 kg/ha) | GALAP herbicidal rating ([13]; rate 0.0320 kg/ha) | CASOB herbicidal rating ([17]; rate 0.0320 kg/ha) | CASOB herbicidal rating ([17]; rate 0.0620 kg/ha)
8.0: Preemergence herbicidal rating AMBEL ([2]; rate 0.0620 kg/ha)
9.0: Preemergence herbicidal rating AMBEL ([2]; rate 0.1250 kg/ha) | Preemergence herbicidal rating AMBEL ([2]; rate 0.2500 kg/ha) | Preemergence herbicidal rating CHEAL ([3]; rate 0.0620 kg/ha) | Preemergence herbicidal rating CHEAL ([3]; rate 0.1250 kg/ha) | Preemergence herbicidal rating CHEAL ([3]; rate 0.2500 kg/ha) | SETVI herbicidal rating ([5]; rate 0.0620 kg/ha) | Preemergence herbicidal rating SETVI ([7]; rate 0.1250 kg/ha) | IPOHE herbicidal rating ([10]; rate 0.0320 kg/ha) | IPOHE herbicidal rating ([10]; rate 0.0620 kg/ha) | Preemergence herbicidal rating GALAP ([12]; rate 0.2500 kg/ha) | AMBEL herbicidal rating ([15]; rate 0.0620 kg/ha) | CHEAL herbicidal rating ([16]; rate 0.0320 kg/ha) | CHEAL herbicidal rating ([16]; rate 0.0620 kg/ha) | ABUTH herbicidal rating ([18]; rate 0.0320 kg/ha) | ABUTH herbicidal rating ([18]; rate 0.0620 kg/ha) | MOOVA herbicidal rating ([19]; rate 0.0080 kg/ha) | herbicidal rating, MOOVA ([19]; rate 0.1250 kg/ha)
3.0: Preemergence herbicidal rating CASOB ([4]; rate 0.1250 kg/ha) | Preemergence herbicidal rating ECHCG ([6]; rate 0.1250 kg/ha)
1.5: SAGPY herbicidal rating ([14]; rate 0.0320 kg/ha)
7.0: Preemergence herbicidal rating SETVI ([7]; rate 0.2500 kg/ha) | Preemergence herbicidal rating ORYSAT ([8]; rate 0.2500 kg/ha) | herbicidal rating, SAGPY ([14]; rate 0.1250 kg/ha) | MOOVA herbicidal rating ([19]; rate 0.0320 kg/ha)
2.0: Preemergence herbicidal rating ORYSAT ([8]; rate 0.0620 kg/ha) | TRZAWR herbicidal rating ([11]; rate 0.0320 kg/ha)
6.0: Preemergence herbicidal rating ORYSAT ([8]; rate 0.1250 kg/ha) | herbicidal rating, CYPIR ([9]; rate 0.1250 kg/ha) | Preemergence herbicidal rating GALAP ([12]; rate 0.1250 kg/ha) | GALAP herbicidal rating ([13]; rate 0.0620 kg/ha)
5.0: Preemergence herbicidal rating CASOB ([4]; rate 0.2500 kg/ha) | SETVI herbicidal rating ([5]; rate 0.0320 kg/ha) | AMBEL herbicidal rating ([15]; rate 0.0320 kg/ha)
3.5: ORYSAT herbicidal rating ([1]; rate 0.0320 kg/ha) | TRZAWR herbicidal rating ([11]; rate 0.0620 kg/ha)
4.5: ORYSAT herbicidal rating ([1]; rate 0.0620 kg/ha)
